Measurements reported in US6358883B1, “Pesticidal and parasiticidal use of 1-aryl-1-(substituted thio, sulfinyl and sulfonyl)-2-nitroethane compounds” (American Cyanamid Company, priority 1998, dated 2002).

Experiments:
Type in all cases: in vivo
[1] = tested on: C. elegans (Bristol strain); assay: Evaluation of test compounds against C. elegans (motility, 96-well plate); design: key: 9=complete kill in 4 hours; 8=complete kill in 24 hours; 7=markedly reduced motility in approximately 95% of worms in 24 hours; 0=normal motility, same as controls; details: motility at 4 and 24 hours
Outline: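 Bristol-strain C. elegans in Na buffer added to wells containing dried compound (applied in 80% acetone) and incubated at 20 °C. Motility of adults and larvae scored subjectively but semi-quantitatively under a dissecting microscope at 4 and 24 h after immersion, plates tapped before reading.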

[2] = tested on: Spodoptera eridania, eggs-southern armyworm (SAW-Eggs); assay: Southern armyworm eggs (SAW-Eggs) treated diet test; design: key: 0 = no effect; 1 = 10-25% kill; 2 = 26-35% kill; 3 = 36-45% kill; 4 = 46-55% kill; 5 = 56-65% kill; 6 = 66-75% kill; 7 = 76-85% kill; 8 = 86-99% kill; 9 = 100% kill; details: mortality after 7 days
Experimental: Test solutions are prepared by dissolving the test compound in a 35% acetone in water mixture to give a concentration of 10,000 ppm. Subsequent dilutions are made with water as needed. Spodoptera eridania, Eggs-southern Armyworm and Diabrotica undecimpunctata howardi, Eggs-southern Corn Rootworm (SAW-Eggs) and (SCR-Eggs) Wells containing artificial diet are treated with the test solutions and dried. The appropriate insect eggs are then placed in the wells. The wells are covered with vented, adhesive, clear plastic covers. After 7 days, mortality counts are made. [table]

[3] = tested on: Diabrotica undecimpunctata howardi, eggs-southern corn rootworm (SCR-Eggs); assay: Southern corn rootworm eggs (SCR-Eggs) treated diet test; design: key: 0 = no effect; 1 = 10-25% kill; 2 = 26-35% kill; 3 = 36-45% kill; 4 = 46-55% kill; 5 = 56-65% kill; 6 = 66-75% kill; 7 = 76-85% kill; 8 = 86-99% kill; 9 = 100% kill; details: mortality after 7 days
Outline: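 Compounds dissolved at 10,000 ppm in 35% acetone/water, diluted with water, applied to artificial diet in wells and dried. Southern corn rootworm or southern armyworm eggs placed on treated diet under vented covers; mortality counted after 7 days.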

[4] = tested on: Spodoptera eridania, 2nd instar larvae, southern armyworm (SAW); assay: Southern armyworm (SAW) leaf dip test; design: key: 0 = no effect; 1 = 10-25% kill; 2 = 26-35% kill; 3 = 36-45% kill; 4 = 46-55% kill; 5 = 56-65% kill; 6 = 66-75% kill; 7 = 76-85% kill; 8 = 86-99% kill; 9 = 100% kill
Outline: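 Compound is dissolved at 10,000 ppm in 35% acetone/water, then diluted with water. Lima bean leaves are dipped for 3 seconds, dried and placed with ten 2nd instar larvae on damp filter paper. Mortality, reduced feeding and molting interference are scored at 5 days.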

[5] = tested on: Diabrotica virgifera virgifera Leconte, 2nd instar western corn rootworm (WCR); assay: Western corn rootworm (WCR) soil test; design: key: 0 = no effect; 1 = 10-25% kill; 2 = 26-35% kill; 3 = 36-45% kill; 4 = 46-55% kill; 5 = 56-65% kill; 6 = 66-75% kill; 7 = 76-85% kill; 8 = 86-99% kill; 9 = 100% kill
Outline: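 Compound in 35% acetone/water applied to talc at 1.25 mg active ingredient per jar (about 50 kg/ha), solvent evaporated, then mixed with millet seed and moist soil. Ten 2nd-instar larvae per jar; mortality counted after 5 days, missing larvae scored dead.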

[6] = tested on: Tetranychus urticae (OP-resistant strain), 2-spotted spider mite (TSM); assay: 2-spotted spider mite (TSM) plant dip test; design: key: 0 = no effect; 1 = 10-25% kill; 2 = 26-35% kill; 3 = 36-45% kill; 4 = 46-55% kill; 5 = 56-65% kill; 6 = 66-75% kill; 7 = 76-85% kill; 8 = 86-99% kill; 9 = 100% kill; details: mortality after 2 days
Outline: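 OP-resistant mites (~100 per leaf) were transferred onto Sieva lima bean primary leaves about 2 h before treatment. Infested plants were dipped for 3 s in compound from a 10,000 ppm stock in 35% acetone/water, diluted with water. Mortality was counted after 2 days.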

[7] = tested on: Aphis gossypii, cotton aphid (CA); assay: Cotton aphid (CA) cotyledon dip test; design: key: 0 = no effect; 1 = 10-25% kill; 2 = 26-35% kill; 3 = 36-45% kill; 4 = 46-55% kill; 5 = 56-65% kill; 6 = 66-75% kill; 7 = 76-85% kill; 8 = 86-99% kill; 9 = 100% kill; details: mortality after 5 days
Outline: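 Cotyledon-stage cotton plants infested overnight via a heavily infested leaf, then dipped in test solution (compound in 35% acetone/water, diluted with water) and dried. Mortality counted after 5 days.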

[8] = tested on: M. incognita (Root Knot Nematode) larvae; assay: Evaluation of test compounds against M. incognita larvae in microtiter plate wells (movement score); details: larvae scored for movement after 20-24 hours; note: key: A score of '9' indicates inactive worms with a straight, sticklike morphology; A score of '8' indicates inactive worms with a limp, curled or curved morphology; A score of '7' indicates dead/paralyzed worms after 72 hours
Outline: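 Newly emerged M. incognita larvae in S Medium (buffered salt solution), 50-65 worms per well, exposed to test compounds in sealed microtiter wells. Movement scored after 20-24 h incubation; wells with obviously dead/paralyzed larvae scored positive. A score of "7" denotes dead/paralyzed worms after […].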

| SMILES | Rating Against C. elegans (150 ppm) [1] | SAW Eggs (300 ppm) rating [2] | SCR Eggs (1000 ppm) rating [3] | SAW (300 ppm) rating [4] | WCR (50 ppm) rating [5] | TSM (300 ppm) rating [6] | CA (300 ppm) rating [7] | M. incognita (150 ppm) score [8] |
| --- | --- | --- | --- | --- | --- | --- | --- | --- |
| C=CCSC(C[N+](=O)[O-])c1cc(OC)cc(OC)c1 (stereo not shown) [Example 3] | 0 | 0 | 0 |  |  |  |  |  |
| O=C(O)CSC(C[N+](=O)[O-])c1c(F)c(F)c(F)c(F)c1F (stereo not shown) [Example 139] | 9 | 0 | 0 | 0 | 9 (9 = 100% kill) | 0 | 0 |  |
| COC(=O)CSC(C[N+](=O)[O-])c1c(F)c(F)c(F)c(F)c1F (stereo not shown) [Example 140] | 8 | 0 | 0 | 6 (6 = 66-75% kill) | 9 (9 = 100% kill) | 0 | 0 |  |
| COC(=O)CSc1c(F)c(F)c(C(C[N+](=O)[O-])SCC(=O)OC)c(F)c1F (stereo not shown) [Example 141] | 8 | 0 | 0 | 0 | 0 | 0 | 0 |  |
| CCCCOC(=O)CSC(C[N+](=O)[O-])c1cccs1 (stereo not shown) [Example 184] |  | 9 (9 = 100% kill) | 0 | 0 | 0 | 0 | 0 | 9 |
| O=C(CSC(C[N+](=O)[O-])c1cccs1)OCc1ccccc1 (stereo not shown) [Example 185] |  | 0 | 0 | 0 | 0 | 0 | 0 | 9 |
| CCCSC(C[N+](=O)[O-])c1cccs1 (stereo not shown) [Example 186] |  | 0 | 0 | 4 (4 = 46-55% kill) | 4 (4 = 46-55% kill) | 0 | 0 | 0 |
| C=CCSC(C[N+](=O)[O-])c1cccs1 (stereo not shown) [Example 187] |  | 0 | 0 | 0 | 0 | 0 | 0 | 9 |
| O=[N+]([O-])CC(SCc1ccccc1)c1cccs1 (stereo not shown) [Example 188] |  | 0 | 0 | 0 | 3 (3 = 36-45% kill) | 0 | 0 | 9 |
| CCCOC(=O)CSC(C[N+](=O)[O-])c1cccs1 (stereo not shown) [Example 189] |  | 0 | 0 | 0 | 0 | 0 | 0 | 9 |
| O=C(O)CSC(C[N+](=O)[O-])c1ccco1 (stereo not shown) [Example 196] |  | 0 | 0 | 0 | 9 (9 = 100% kill) | 0 | 0 | 9 |
| COC(=O)CSC(C[N+](=O)[O-])c1ccco1 (stereo not shown) [Example 197] |  | 9 (9 = 100% kill) | 0 | 0 | 0 | 0 | 5 (5 = 56-65% kill) | 9 |
| CCOC(=O)CSC(C[N+](=O)[O-])c1ccco1 (stereo not shown) [Example 198] |  | 9 (9 = 100% kill) | 0 | 0 | 7 (7 = 76-85% kill) | 0 | 0 | 9 |
| CCCOC(=O)CSC(C[N+](=O)[O-])c1ccco1 (stereo not shown) [Example 199] |  | 9 (9 = 100% kill) | 0 | 0 | 8 (8 = 86-99% kill) | 0 | 0 | 9 |
| CCCCOC(=O)CSC(C[N+](=O)[O-])c1ccco1 (stereo not shown) [Example 200] |  | 9 (9 = 100% kill) | 0 | 0 | 4 (4 = 46-55% kill) | 0 | 0 | 9 |
| CCCSC(C[N+](=O)[O-])c1ccco1 (stereo not shown) [Example 201] |  | 0 | 0 | 0 | 7 (7 = 76-85% kill) | 0 | 0 | 0 |
| C=CCSC(C[N+](=O)[O-])c1ccco1 (stereo not shown) [Example 202] |  | 9 (9 = 100% kill) | 0 | 0 | 9 (9 = 100% kill) | 0 | 0 | 0 |
